From patent publication US20030114375A1, “Method for treating cystic fibrosis” (The Government of the USA, Dept of Health and Human …, priority 1994, published 2003)
“Also recorded” adds a separate entry of the source. Where two headings read alike, the source gives them in different places.

Key:
A1-adenosine receptor = target: T1, A1-adenosine receptor (Rattus norvegicus, UniProt P25099); assay: Inhibition of [3H]N6-phenylisopropyladenosine binding to A1 receptors
T1 construct: Rat cerebral cortical membranes and striatal membranes were prepared; from tissue; host or cells: rat cerebral cortex membranes
T1 sequence (P25099 1-326): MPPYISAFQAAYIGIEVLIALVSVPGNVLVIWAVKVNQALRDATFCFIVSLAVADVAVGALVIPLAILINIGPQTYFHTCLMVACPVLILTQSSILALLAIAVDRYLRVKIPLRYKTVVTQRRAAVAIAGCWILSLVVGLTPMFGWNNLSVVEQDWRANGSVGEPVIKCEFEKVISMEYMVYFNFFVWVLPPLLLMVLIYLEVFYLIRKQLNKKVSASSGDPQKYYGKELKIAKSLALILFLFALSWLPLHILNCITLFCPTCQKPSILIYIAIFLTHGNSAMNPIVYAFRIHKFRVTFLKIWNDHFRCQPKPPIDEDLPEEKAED
Experimental: (§1) Solid samples of the adenosine derivatives were dissolved in dimethyl sulfoxide (DMSO) and stored in the art at. −20° C. The stock solutions were diluted with DMSO to a concentration of ≦0.1 mM prior to addition to the aqueous medium. The final concentration of DMSO in the assay medium was generally 2%.
Inhibition of binding of 1 nM [^3H]N^6-phenylisopropyladenosine (Dupont NEN, Boston, Mass.) to A1 receptors in rat cerebral cortex membranes was measured as described in Schwabe et al., Naunyn-Schmiedeberg's Arch. […] Membranes (^˜100 μg protein per tube) were incubated for 1.5 hours at 37° C. in a total volume of 0.5 ml of 50 mM tris hydrochloride at pH 7.4. Test drugs were dissolved in DMSO and added in 10 μl aliquots, resulting in a final DMSO concentration of 2%. Bound and free radioligand were separated by addition of 3 ml of a buffer containing 50 mM tris hydrochloride, at pH 7.4 at 5° C., followed by vacuum filtration using a Brandel Cell Harvester (Brandel, Gaithersburg, Md.) and a Whatman GF/B glass fiber filter with additional washes totaling 9 ml of buffer. Non-specific binding was determined with 10 μM 2-chloroadenosine.
(§2) At least six different concentrations spanning three orders of magnitude, adjusted appropriately for the IC50 of each compound, were used.

CFPAC cells [1] = assay: [36Cl]- efflux from CFPAC cells; details: for Efflux rate as compared to control (FIGS. 9-12): read from the graphs; for % control: chloride efflux at maximum impact relative to control: at Conc. max.; for % control: chloride efflux at minimum detection relative to control: at threshold concentration
A2a-adenosine receptor = target: T2, A2a-adenosine receptor (Rattus norvegicus, UniProt P30543); assay: Inhibition of [3H]CGS 21680 binding to A2a receptors; details: for Ki: rat striatal membranes, 5 nM [3H]CGS 21680, read-out: Ki, μM(A2)
T2 construct: Rat cerebral cortical membranes and striatal membranes were prepared; from tissue; host or cells: rat striatal membranes
T2 sequence (P30543 whole entry): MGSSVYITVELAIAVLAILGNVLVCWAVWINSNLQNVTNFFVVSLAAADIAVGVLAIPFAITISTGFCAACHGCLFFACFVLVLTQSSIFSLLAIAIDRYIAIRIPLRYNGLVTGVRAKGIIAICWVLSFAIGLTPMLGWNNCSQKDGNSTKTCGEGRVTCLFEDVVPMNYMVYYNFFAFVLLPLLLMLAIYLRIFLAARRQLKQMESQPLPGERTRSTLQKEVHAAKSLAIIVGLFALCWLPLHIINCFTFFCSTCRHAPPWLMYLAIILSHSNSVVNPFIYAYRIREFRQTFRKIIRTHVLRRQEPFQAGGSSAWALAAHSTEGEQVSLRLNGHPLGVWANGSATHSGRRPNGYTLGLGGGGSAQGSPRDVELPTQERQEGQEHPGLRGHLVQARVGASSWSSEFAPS
Experimental: as §1
Membranes (^˜80 μg protein per tube) were incubated for one hour at 25° C. in a total volume of 0.5 ml of a buffer solution consisting of […] tris hydrochloride and 10 mM MgCl2 at pH 7.4. Test drugs were dissolved in DMSO and added in 10 μl aliquots, resulting in a final DMSO concentration of 2%. Non-specific binding was defined using 20 μM 2-chloroadenosine. Filtration was carried out using a Brandel Cell Harvester, as above, using the tris.HCl/MgCl2 buffer recited hereinabove as the washing buffer.
as §2

[2] = tested on: bovine chromaffin granules; assay: Chromaffin granule aggregation assay; format: biochemical; details: for Aggregation of chromaffin granules: 1 mM CaCl2, 20 μg/ml polypeptide
Experimental: Chromaffin granule aggregation assay: Adrenal glands were obtained from a local abattoir and transported to the laboratory on ice within 2 hours of slaughter. Tissue was processed as described in Brocklehurst et al. in Polypeptide Hormones: A Practical Approach (Oxford Univ. Press, K. Siddle and J. Hutton, eds., 1990) at pp. 237-255. Chromaffin granules were purified on a step gradient of metrizamide using standard procedures. After resuspension, the granule aggregation assay was performed as described (Brocklehurst et al., supra), and the synexin activity was assessed from the initial rate of optical density increase at 540 nm. Briefly, the assay was carried out at room temperature in a 1 ml quartz cuvette containing the chromaffin granule suspension in 0.3 mol/l sucrose, 40 mmol/l histidine buffer, pH 6.0, synexin and variable amounts of calcium chloride.

CFPAC cells [3] = details: U.S. Pat. No. 5,366,977 / Eidelman et al.; cited from earlier work
Iα polypeptide = target: T3, Iα polypeptide (Homo sapiens, UniProt P13569); assay: Phosphatidylserine liposome aggregation driven by Iα polypeptide; format: biochemical; details: 0.5 μg/ml (0.18 μM) Iα; 2-thio-CPX up to 1 μM, IBMX up to 15 μM
T3 construct: made in house; host or cells: chemical solid-phase synthesis (Yale University)
Experimental: Liposome aggregation assay: Phosphatidylserine (“PS”, obtained from Avanti) was dissolved in chloroform, and small unilamellar liposomes were prepared by the extrusion process known in the art. A Lipex machine was used to extrude the PS in a buffer consisting of 10 mM Na-HEPES, pH 7.2 and 1 mM EDTA. The liposomes were diluted to a final optical density at 540 nm of 0.01 and incubated with different concentrations of the different polypeptides and/or chloride ion efflux-activating compounds.

[4] = rat cerebral cortex membranes, 1 nM [3H]PIA, read-out: Ki, μM(A1)

Molecule: Cn1c(=O)c2[nH]c(CC3CCCCC3)nc2n(C)c1=O [Compound 21]
- Ki (A1-adenosine receptor; [4]): 0.61 ± 0.076 µM
- melting point: 236 to 238 °C
- Conc. max. (nM): concentration at maximum impact upon chloride efflux (CFPAC cells [1]): >>10^4 nM
- Ki (A2a-adenosine receptor): 5.47 ± 0.86 µM

Molecule: Io: CFTR polypeptide, positions 500 to 530, NH2-GTIKENEEFGVSYDEYRYRSVIKACQLEEDIS-COOH
- Aggregation of chromaffin granules [2]: inactive

Molecule: Cn1c(=O)c2c(nc(C3CCCCCC3)n2C)n(C)c1=O [Compound 24]
- Ki (A1-adenosine receptor; [4]): 19.5 ± 2.5 µM
- Conc. max. (nM): concentration at maximum impact upon chloride efflux (CFPAC cells [1]): >>10^4 nM
- A2a affinity (fold) (A2a-adenosine receptor; A2a versus A1): 6 fold
- Ki (A2a-adenosine receptor): 3.27 ± 0.98 µM

Molecule: CFTR polypeptide, amino acid positions 477 to 508, NH2-PSEGKIKHSGRISFCSQFSWIMPGTIKENEEF-COOH [Iα]
- Aggregation of chromaffin granules [2]: drive aggregation
- k1/2,app of chromaffin granule aggregation ([2]; 1 mM CaCl2, pH 6.0): 22.2 µg/mL
- EC50 ([2]; 1 mM CaCl2, pH 6.0, read-out: k1/2,app of chromaffin granule aggregation): 6.3 µM

Molecule: Cn1c(=O)c2c(nc(CC3CCCCC3)n2C)n(C)c1=O [Compound 22, 8-cyclohexylmethyl caffeine]
- Ki (A1-adenosine receptor; [4]): 3.71 ± 0.36 µM
- Conc. max. (nM): concentration at maximum impact upon chloride efflux (CFPAC cells [1]): >>10^4 nM
- Efflux rate as compared to control (FIGS. 9-12) (CFPAC cells [1]): 200%
- Ki (A2a-adenosine receptor): 5.46 ± 0.47 µM

Molecule: CCn1cnc2c(NC3CCCC3)ncnc21 [Compound 27, 9-ethyl-6-cyclopenyladenine, reference compound]
- Ki (A1-adenosine receptor; [4]): 0.44 µM
- Conc. max. (nM): concentration at maximum impact upon chloride efflux (CFPAC cells [1]): >>10^4 nM
- Ki (A2a-adenosine receptor): 17 µM

Molecule: Cn1c(=O)c2c(nc(C=Cc3cccc(Cl)c3)n2C)n(C)c1=O [Compound 25, reference compound]
- Chloride efflux stimulation (summary words) (CFPAC cells [1]): stimulate chloride efflux at μM or lesser concentrations
- Conc. max. (nM): concentration at maximum impact upon chloride efflux (CFPAC cells [1]): 30 nM
- thresh (nM): minimum concentration required to detect an effect upon chloride efflux (CFPAC cells [1]): 30 nM

Molecule: CCCn1c(=O)c2c(nc(C3CCCCC3)n2C)n(CCC)c1=O [Compound 19, 1,3-dipropyl-7-methyl-8-cyclohexylxanthine]
- Ki (A1-adenosine receptor; [4]): 2.7 µM
- Chloride efflux stimulation (summary words) (CFPAC cells [1]): stimulate chloride efflux at μM or lesser concentrations; also recorded: substantial efflux activity at low concentration ranges
- Conc. max. (nM): concentration at maximum impact upon chloride efflux (CFPAC cells [1]): 5 nM
- thresh (nM): minimum concentration required to detect an effect upon chloride efflux (CFPAC cells [1]): 5 nM
- % control: chloride efflux at maximum impact relative to control (CFPAC cells [1]): 170 ± 50%
- % control: chloride efflux at minimum detection relative to control (CFPAC cells [1]): 170 ± 50%
- Ki (A2a-adenosine receptor): 9.24 ± 0.37 µM

Molecule: Cn1c(=O)c2c(nc(C3CCCCC3)n2CC2CC2)n(C)c1=O [Compound 16]
- Ki (A1-adenosine receptor; [4]): 8.23 ± 1.62 µM
- Conc. max. (nM): concentration at maximum impact upon chloride efflux (CFPAC cells [1]): >>10^4 nM
- Ki (A2a-adenosine receptor): 4.53 ± 1.37 µM

Molecule: Cn1c(=O)c2[nH]c(C3CCCCCC3)nc2n(C)c1=O [Compound 23]
- Ki (A1-adenosine receptor; [4]): 0.0659 ± 0.0145 µM
- melting point: 223 to 225 °C
- Conc. max. (nM): concentration at maximum impact upon chloride efflux (CFPAC cells [1]): >>10^4 nM
- Ki (A2a-adenosine receptor): 1.05 ± 0.19 µM

Molecule: Cn1c(=O)c2c(ncn2C)n(C)c1=O [Compound 2, 1,3,7-trimethylxanthine, reference compound]
- Conc. max. (nM): concentration at maximum impact upon chloride efflux (CFPAC cells [1]): 10 nM
- thresh (nM): minimum concentration required to detect an effect upon chloride efflux (CFPAC cells [1]): 1 nM

Molecule: CCCn1c(=O)c2[nH]c(C3CCC(F)C3)nc2n(CCC)c1=O (centres unmarked) [Compound 9]
- Ki (A1-adenosine receptor; [4]): 0.042 µM
- Conc. max. (nM): concentration at maximum impact upon chloride efflux (CFPAC cells [1]): >>300 nM

Molecule: CCn1c(C2CCCCC2)nc2c1c(=O)n(C)c(=O)n2C [Compound 15]
- Ki (A1-adenosine receptor; [4]): 6.66 ± 0.99 µM
- Conc. max. (nM): concentration at maximum impact upon chloride efflux (CFPAC cells [1]): >>10^4 nM
- Ki (A2a-adenosine receptor): 3.23 ± 0.36 µM

Molecule: Iβ: CFTR polypeptide, positions 509 to 539, NH2-GVSYDEYRYRSVIKACQLEEDISKFAEKDNI-COOH
- Aggregation of chromaffin granules [2]: essentially inactive

Molecule: Cn1c(=O)c2[nH]c(C3CCCC3)nc2n(C)c1=O [Compound 4, 1,3-dimethyl-8-cyclopentylxanthine, reference compound]
- Affinity for A1 receptor (A1-adenosine receptor): highest A1 affinity
- Ki (A1-adenosine receptor; [4]): 0.011 µM
- Activation of chloride efflux from CF cells (words, prior disclosure) (CFPAC cells [3]): ineffective
- Conc. max. (nM): concentration at maximum impact upon chloride efflux (CFPAC cells [1]): >>10^4 nM

Molecule: CCn1c(C2CCCCC2)nc2c1c(=O)n(C)c(=O)n2C (hydrate or solvate) [Compound 15]
- melting point: > 170 °C

Molecule: CCCn1c(=O)c2[nH]c(-c3ccc(OCC(=O)NCCN)cc3)nc2n(CCC)c1=O [Compound 26, reference compound]
- Conc. max. (nM): concentration at maximum impact upon chloride efflux (CFPAC cells [1]): >>10^4 nM

Molecule: Cn1c(=O)c2c(nc(C3CCCCC3)n2C)n(C)c1=O [Compound 14, 8-cyclohexyl caffeine]
- Chloride efflux stimulation (summary words) (CFPAC cells [1]): stimulate chloride efflux at μM or lesser concentrations; also recorded: substantial efflux activity at low concentration ranges
- thresh (nM): minimum concentration required to detect an effect upon chloride efflux (CFPAC cells [1]): 3 nM

Molecule: CCCn1c(=O)c2[nH]c(C3CCC(I)C3)nc2n(CCC)c1=O (centres unmarked) [Compound 10]
- Ki (A1-adenosine receptor; [4]): 0.058 µM
- Conc. max. (nM): concentration at maximum impact upon chloride efflux (CFPAC cells [1]): >>300 nM

Molecule: Nc1ncnc2c1ncn2[C@@H]1O[C@H](CO)[C@@H](O)[C@H]1O [Adenosine, adenosine]
- Effect on PS liposome aggregation driven by Iα (Iα polypeptide): modest but evident biphasic effect

Molecule: CCCn1c(=O)c2c(nc(C3CCCC3)n2C)n(CCC)c1=O [Compound 6, 1,3-dipropyl-7-methyl-8-cyclopentylxanthine]
- Affinity for A1 receptor (A1-adenosine receptor): low affinity
- Ki (A1-adenosine receptor; [4]): 2.3 µM
- Chloride efflux stimulation (summary words) (CFPAC cells [1]): stimulate chloride efflux at μM or lesser concentrations; also recorded: substantial efflux activity at low concentration ranges
- Conc. max. (nM): concentration at maximum impact upon chloride efflux (CFPAC cells [1]): 1000 nM
- thresh (nM): minimum concentration required to detect an effect upon chloride efflux (CFPAC cells [1]): 30 nM
- % control: chloride efflux at maximum impact relative to control (CFPAC cells [1]): 180 ± 40%
- % control: chloride efflux at minimum detection relative to control (CFPAC cells [1]): 125 ± 30%
- Affinity for A2 receptor (A2a-adenosine receptor): low affinity
- Ki (A2a-adenosine receptor): 11.4 ± 1.4 µM

Molecule: C=CCn1c(=O)c2[nH]c(C3CCCCC3)nc2n(CC=C)c1=O [Compound 17]
- Ki (A1-adenosine receptor; read-out: Ki for A1 receptors (unit inferred)): ~0.07 µM
- Conc. max. (nM): concentration at maximum impact upon chloride efflux (CFPAC cells [1]): 10^3 nM
- thresh (nM): minimum concentration required to detect an effect upon chloride efflux (CFPAC cells [1]): 30 nM
- Efflux rate as compared to control (FIGS. 9-12) (CFPAC cells [1]): > 100%
- Ki (A2a-adenosine receptor): 4.94 ± 0.68 µM

Molecule: CCCn1c(=O)c2[nH]c(C3CCCCC3)nc2n(CCC)c1=O [Compound 18]
- Conc. max. (nM): concentration at maximum impact upon chloride efflux (CFPAC cells [1]): >>10^4 nM

Molecule: Cn1c(=O)c2c(nc(C3CCCCC3)n2CC2CC2)n(C)c1=O (hydrate or solvate) [Compound 16]
- melting point: > 120 °C

Molecule: CCCn1c(=O)c2[nH]c(C3C=CCC3)nc2n(CCC)c1=O (centres unmarked) [Compound 11]
- Ki (A1-adenosine receptor; [4]): 0.045 µM
- Conc. max. (nM): concentration at maximum impact upon chloride efflux (CFPAC cells [1]): >>300 nM
- Ki (A2a-adenosine receptor): 0.64 ± 0.061 µM
